Laboratory results published in patent publication US20170281806A1, “CHELATOR-TARGETING LIGAND CONJUGATES FOR CARDIOVASCULAR IMAGING” (priority 2009, published 2017).
Entries after “also recorded” stand apart in the source; their conditions may differ.

What was measured:
LV = type: in vivo, dog
Text: In two dogs with right atrial pacing at 180 beats per minute (bpm) for 5 weeks, there was significant deterioration of cardiac ejection fraction at the 5 week timepoint with ejection fraction reduced to less than 25% in both cases.

myocardium [1] = type: in vivo; conditions: dog
Method: In this model, one of the major coronary arteries, either the left anterior descending (LAD) or left circumflex (LCx) coronary artery and all visible collateral vessels are tied off for 120 minutes, followed by complete reflow of the vessels. The chest is closed and the dogs are recovered and followed for up to 8 weeks with MR and SPECT imaging. […] Autoradiography and gamma well counting of 99mTc activity is not possible when using a 99mTc perfusion agent at the same time as 99mTc-EC-glucosamine. […] It is possible that the improved labeling efficiency in the 72 hour and 1 week scans resulted from changes that were made in the instructions for reconsistituting the 99mTc-EC-glucosamine kits. […] This dog will undergo further imaging at 4 weeks and again at 7.5/8 weeks as described above.

LAD zone = assay: Ischemic memory, acute model: SPECT, ex vivo imaging, gamma well counting; type: in vivo, dog; conditions: for activity in the LAD zone relative to the normal LCx zone (gamma well counter), FIG. 3: after reperfusion
Method: FIG. 2. Time line of protocol concerning ischemic memory. LAD flow was reduced by 75% tightening of a snare occluder in dogs to produce resting ischemia for 90 minutes followed by full perfusion. 99mTc-EC-glucosamine was injected 15 minutes after reflow with SPECT performed at one hour post injection.
In two dogs, LAD flow was reduced by 75% by tightening a snare occluder to produce resting ischemia for 90 minutes followed by full reperfusion. 99mTc-EC-glucosamine was injected 15 minutes after reflow with SPECT imaging performed at one hour post injection. No perfusion images were acquired in these studies, however, the perfusion image shown from another dog in the same position on the table is fused with the 99mTc-EC-glucosamine images for orientation purposes only (FIG. 2).
The heart slides were divided into 96 segments and counted in a gamma well counter for microsphere flow, Tl-201 activity, and 99mTc-EC-glucosamine uptake.

myocardium [2] = assay: Ischemic memory, chronic model; type: in vivo, dog; conditions: LAD flow reduced 90% for 90 minutes
Method: In a third dog, the protocol above was modified to examine 99mTc-EC-glucosamine uptake at later time points after reperfusion. In addition, the severity of the ischemic insult was increased such that LAD flow was reduced by 90% rather than 75% for 90 minutes. 99mTc-EC-glucosamine uptake was assessed at 48 hours and one week after reperfusion.

Row | Compound | blood pool activity (LV; dog, in vivo) | uptake in the heart (SPECT) (myocardium [1]; 48 hours post myocardial infarction) | uptake in the posterior wall (SPECT) (myocardium [1]; LCx occlusion, 72 hours post infarction, imaging 2 hours after injection) | uptake in the myocardium (SPECT) (myocardium [1]; baseline before infarction) | uptake by in vivo SPECT (LAD zone; LAD flow reduced 75% for 90 minutes, injected 15 minutes after reflow, SPECT one hour post injection) | activity in the LAD zone relative to the normal LCx zone (gamma well counter), FIG. 3 (LAD zone) | uptake in mildly ischemic areas (LAD zone; flow reduced by 20-40% of normal) | activity relative to the normal zone, central ischemic zone (LAD zone; flow reduced by 60-80% of normal) | uptake in central and border zone ischemic areas (LAD zone; segments by degree of flow reduction during ischemia, FIG. 4) | uptake after reperfusion (myocardium [2]; 48 hours after reperfusion) | uptake after reperfusion (myocardium [2]; one week after reperfusion) | uptake in the LV (SPECT) (LV; dogs, right atrial pacing 180 bpm for 5 weeks)
1 | 99mTc-ethylenedicysteine (EC) glucosamine [99mTc-EC-glucosamine] | significant amount of blood pool activity | small focal hot spot | large amount of 99mTc-EC-glucosamine uptake | no 99mTc-EC-glucosamine uptake observed in the myocardium; also recorded: no 99mTc-EC-glucosamine was observed in the myocardium | focal 99mTc-EC-glucosamine hot spot in the apex of the heart; also recorded: focal hotspot | significantly higher | enhanced 99mTc-EC-glucosamine uptake | greater than 150% | enhanced | uptake was observed | no uptake | 
2 | [201Tl] [Tl-201, thallium-201, reference compound] |  |  |  |  |  | slightly reduced |  |  |  |  |  | 
3 | CCOCC[PH+](CCOCC)CC[PH+](CCOCC)CCOCC.CCOCC[PH+](CCOCC)CC[PH+](CCOCC)CCOCC.[O]=[99Tc]=[O] [tetrofosmin, technetium Tc-99m tetrofosmin, reference compound] |  |  |  |  |  |  |  |  |  |  |  | not completely homogenous
